Data set [1] can be described thus: Flowability test (flow through the funnel). It is filed as physicochemical. As to conditions: for Flowing time (mean value): flowability comparison, powder. The source says:
These advantages will be clearer by considering the following comparison between Form I of S-Erdosteine and the amorphous racemic form. […] Conversely, Form I has a mean flowing time of about 35 seconds, which allows to handle and transfer the powder more easily, and to avoid the use or reduce the amount of glidants in the finished pharmaceutical formulation.

A short description of data set [2]: Dissolution rate test (Intrinsic Dissolution Rate) of 150 mg tablets in 0.1M hydrochloric acid. Type of data set: physicochemical. As to conditions: FIG. 10. On the procedure:
A dissolution rate test was performed in order to define the Intrinsic Dissolution Rate of Erdosteine Form I and Racemic Erdosteine. Six thin 150 mg tablets of S-erdosteine Form I and six 150 mg tablets of racemic Erdosteine were prepared by compression with a 10 ton press and their dissolution profile in 0.1M hydrochloric acid was evaluated. The two profiles are reported in FIG. 10, superimposed on the same graph. As can be clearly seen, the dissolution profile of Form I is very different from that of racemic, non-polymorphic Erdosteine. In fact, after 15 minutes more than 80% Form I is dissolved, while more that 25 minutes are necessary to dissolve 40% racemic Erdosteine. The higher solubility of Form I allows to obtain an improved pharmaceutical form in terms of dosage and bioavailability.

Take `O=C(O)CSCC(=O)NC1CCSC1=O` (racemic) [Racemic Erdosteine]: in data set [1], the “Flowing time (mean value)” value is on record as “∞”. Moreover, the “flowability (flow through the funnel)” value in data set [1] (result in words) is “does not flow through the funnel”. Besides, the “time necessary to dissolve 40%” value in data set [2] was above 25 min.
With `O=C(O)CSCC(=O)NC1CCSC1=O` (stereo not drawn) [Erdosteine Form I], in data set [1], the “Flowing time (mean value)” value is reported as 35.6″. Besides, the mean flowing time result in data set [1] (powder through the funnel) was “about 35 seconds”. Also, the amount dissolved entry in data set [2] (after 15 minutes) is “more than 80%”.

Values taken from patent US8269022B2, “Polymorphs of enantiopure erdosteine” (Edmond Pharma S.R.L, priority 2007, dated 2012).
